Measured values as given in patent US11629129B2, “Microbiocidal picolinamide derivatives” (SYNGENTA PARTICIPATIONS AG, priority 2018, dated 2023).

Experiments:
[1] = system: Mycosphaerella arachidis (Cercospora arachidicola); test: Mycosphaerella arachidis (Cercospora arachidicola)/Liquid Culture (Early Leaf Spot); assay type: cell-based; settings: 200 ppm in the formulation, liquid culture, growth inhibition photometrically 4-5 days after application, compared to untreated control, read-out: disease control
Experimental: (§1) Mycosphaerella arachidis (Cercospora arachidicola)/Liquid Culture (Early Leaf Spot) Conidia of the fungus from cryogenic storage are directly mixed into nutrient broth (PDB potato dextrose broth). After placing a (DMSO) solution of test compound into a microtiter plate (96-well format), the nutrient broth containing the fungal spores is added. The test plates are incubated at 24° C. and the inhibition of growth is determined photometrically 4-5 days after application.

[2] = system: Monographella nivalis (Microdochium nivale); test: Monographella nivalis (Microdochium nivale)/Liquid Culture (Foot Rot Cereals); assay type: cell-based; settings: 200 ppm in the formulation, liquid culture, growth inhibition photometrically 4-5 days after application, compared to untreated control, read-out: disease control
Experimental: as §1, with “Monographella nivalis (Microdochium nivale)/Liquid” for “Mycosphaerella arachidis (Cercospora arachidicola)/Liquid”, “(Foot Rot Cereals)” for “(Early Leaf Spot)”

[3] = system: Glomerella lagenarium (Colletotrichum lagenarium); test: Glomerella lagenarium (Colletotrichum lagenarium)/Liquid Culture (Anthracnose); assay type: cell-based; settings: Colletotrichum orbiculare; 200 ppm in the formulation; liquid culture, growth inhibition photometrically 3 to 4 days after application; compared to untreated control; read-out: disease control
Experimental: as §1, with “Glomerella lagenarium (Colletotrichum lagenarium)/Liquid” for “Mycosphaerella arachidis (Cercospora arachidicola)/Liquid”, “(Anthracnose)” for “(Early Leaf Spot)”, “measured” for “determined”, “3 to 4” for “4-5”

[4] = system: Mycosphaerella graminicola (Septoria tritici); test: Mycosphaerella graminicola (Septoria tritici)/Liquid Culture (Septoria Blotch); assay type: cell-based; settings: Zymoseptoria tritici; 200 ppm in the formulation; liquid culture, growth inhibition photometrically 4 to 5 days after application; compared to untreated control; read-out: disease control
Experimental: as §1, with “graminicola (Septoria tritici)/Liquid” for “arachidis (Cercospora arachidicola)/Liquid”, “(Septoria Blotch)” for “(Early Leaf Spot)”, “4 to 5” for “4-5”

[5] = system: Botryotinia fuckeliana (Botrvtis cinerea); test: Botryotinia fuckeliana (Botrvtis cinerea)/Liquid Culture (Gray Mould); assay type: cell-based; settings: Botrytis cinerea; 200 ppm in the formulation; liquid culture, growth inhibition photometrically 3-4 days after application; compared to untreated control; read-out: disease control
Experimental: as §1, with “Botryotinia fuckeliana (Botrvtis cinerea)/Liquid” for “Mycosphaerella arachidis (Cercospora arachidicola)/Liquid”, “(Gray Mould)” for “(Early Leaf Spot)”, “(Vogels” for “(PDB potato dextrose”, “3-4” for “4-5”

[6] = system: Puccinia recondita f. sp. tritici; test: Puccinia recondita f. sp. tritici/Wheat/Leaf Disc Preventative (Brown Rust); assay type: in vivo; settings: foliar, 200 ppm in the formulation, wheat leaf segments cv. Kanzler, inoculated 1 day after application, assessed 7-9 days after application, compared to untreated, read-out: disease control
Experimental: Puccinia recondita f. sp. tritici/Wheat/Leaf Disc Preventative (Brown Rust) Wheat leaf segments cv. Kanzler are placed on agar in multiwell plates (24-well format) and sprayed with the formulated test compound diluted in water. The leaf disks are inoculated with a spore suspension of the fungus 1 day after application. The inoculated leaf segments are incubated at 19° C. and 75% rh under a light regime of 12 h light/12 h darkness in a climate cabinet and the activity of a compound is assessed as percent disease control compared to untreated when an appropriate level of disease damage appears in untreated check leaf segments (7-9 days after application).

COc1ccnc(C(=O)N[C@@H](C)C(=O)O[C@@H](C)c2cccc(-c3ccccc3)c2)c1O [I.a.001, [(1S)-1-(3-phenylphenyl)ethyl] (2S)-2-[(3-hydroxy-4-methoxy-pyridine-2-carbonyl)amino] propanoate]
≥ 80%: inhibition of growth at 200 ppm [1] | inhibition of growth at 200 ppm [2] | inhibition of growth at 200 ppm [3] | inhibition of growth at 200 ppm [4] | inhibition of growth at 200 ppm [5]

COc1ccnc(C(=O)N[C@@H](C)C(=O)O[C@@H](C)c2ccc(-c3ccc(C(F)(F)F)nc3)cc2)c1O [I.af.001, [(1S)-1-[4-[6-(trifluoromethyl)-3-pyridyl]phenyl]ethyl] (2S)-2-[(3-hydroxy-4-methoxy-pyridine-2-carbonyl)amino] propanoate]
≥ 80%: inhibition of growth at 200 ppm [1] | pest or weed control at 200 ppm [6] | inhibition of growth at 200 ppm [2] | inhibition of growth at 200 ppm [3] | inhibition of growth at 200 ppm [4]

COc1ccnc(C(=O)N[C@@H](C)C(=O)O[C@@H](C)c2ccc(-c3cncc(Cl)c3)cc2)c1O [I.ah.001, [(1S)-1-[4-(5-chloro-3-pyridyl)phenyl]ethyl] (2S)-2-[(3-hydroxy-4-methoxy-pyridine-2-carbonyl)amino] propanoate]
≥ 80%: inhibition of growth at 200 ppm [1] | pest or weed control at 200 ppm [6] | inhibition of growth at 200 ppm [2] | inhibition of growth at 200 ppm [3] | inhibition of growth at 200 ppm [4]

COc1ccnc(C(=O)N[C@@H](C)C(=O)O[C@@H](C)c2cccc(Oc3cccc(Cl)c3)c2)c1O [I.ar.001, [(1S)-1-[3-(3-chlorophenoxy)phenyl]ethyl] (2S)-2-[(3-hydroxy-4-methoxy-pyridine-2-carbonyl)amino] propanoate]
≥ 80%: inhibition of growth at 200 ppm [1] | pest or weed control at 200 ppm [6] | inhibition of growth at 200 ppm [3] | inhibition of growth at 200 ppm [4]

COc1ccnc(C(=O)N[C@@H](C)C(=O)O[C@@H](C)c2cccc(Oc3ccc(Cl)cc3)c2)c1O [I.as.001, [(1S)-1-[3-(4-chlorophenoxy)phenyl]ethyl] (2S)-2-[(3-hydroxy-4-methoxy-pyridine-2-carbonyl)amino] propanoate]
≥ 80%: inhibition of growth at 200 ppm [1] | pest or weed control at 200 ppm [6] | inhibition of growth at 200 ppm [3] | inhibition of growth at 200 ppm [4] | inhibition of growth at 200 ppm [5]

COc1ccnc(C(=O)N[C@@H](C)C(=O)O[C@@H](C)c2ccc(Oc3ccccc3)cc2)c1O [I.at.001, [(1S)-1-(4-phenoxyphenyl)ethyl] (2S)-2-[(3-hydroxy-4-methoxy-pyridine-2-carbonyl)amino] propanoate]
≥ 80%: inhibition of growth at 200 ppm [1] | pest or weed control at 200 ppm [6] | inhibition of growth at 200 ppm [2] | inhibition of growth at 200 ppm [3] | inhibition of growth at 200 ppm [4]

COc1ccnc(C(=O)N[C@@H](C)C(=O)O[C@@H](C)c2ccc(Oc3cccc(Cl)c3)cc2)c1O [I.au.001, [(1S)-1-[4-(3-chlorophenoxy)phenyl]ethyl] (2S)-2-[(3-hydroxy-4-methoxy-pyridine-2-carbonyl)amino] propanoate]
≥ 80%: inhibition of growth at 200 ppm [1] | pest or weed control at 200 ppm [6] | inhibition of growth at 200 ppm [2] | inhibition of growth at 200 ppm [3] | inhibition of growth at 200 ppm [4]

COc1ccnc(C(=O)N[C@@H](C)C(=O)O[C@@H](C)c2ccc(Oc3ccc(Cl)cc3)cc2)c1O [I.av.001, [(1S)-1-[4-(4-chlorophenoxy)phenyl]ethyl] (2S)-2-[(3-hydroxy-4-methoxy-pyridine-2-carbonyl)amino] propanoate]
≥ 80%: inhibition of growth at 200 ppm [1] | pest or weed control at 200 ppm [6] | inhibition of growth at 200 ppm [2] | inhibition of growth at 200 ppm [3] | inhibition of growth at 200 ppm [4]

COc1ccnc(C(=O)N[C@@H](C)C(=O)O[C@@H](C)c2cccc(-c3ccccc3Cl)c2)c1O [I.b.001, [(1S)-1-[3-(2-chlorophenyl)phenyl]ethyl] (2S)-2-[(3-hydroxy-4-methoxy-pyridine-2-carbonyl)amino] propanoate]
≥ 80%: inhibition of growth at 200 ppm [1] | pest or weed control at 200 ppm [6] | inhibition of growth at 200 ppm [2] | inhibition of growth at 200 ppm [4] | inhibition of growth at 200 ppm [5]

COc1ccnc(C(=O)N[C@@H](C)C(=O)O[C@@H](C)c2ccc(-c3cscc3C)cc2)c1O [I.bb.001, [(1S)-1-[4-(4-methyl-3-thienyl)phneyl]ethyl] (2S)-2-[(3-hydroxy-4-methoxy-pyridine-2-carbonyl)amino] propanoate]
≥ 80%: inhibition of growth at 200 ppm [1] | pest or weed control at 200 ppm [6] | inhibition of growth at 200 ppm [2] | inhibition of growth at 200 ppm [3] | inhibition of growth at 200 ppm [4]

COc1ccnc(C(=O)N[C@@H](C)C(=O)O[C@@H](C)c2ccc(-c3ccccc3)cc2)c1O [I.d.001, [(1S)-1-(4-phenylphenyl)ethyl] (2S)-2-[(3-hydroxy-4-methoxy-pyridine-2-carbonyl)amino] propanoate]
≥ 80%: inhibition of growth at 200 ppm [1] | pest or weed control at 200 ppm [6] | inhibition of growth at 200 ppm [2] | inhibition of growth at 200 ppm [3] | inhibition of growth at 200 ppm [4] | inhibition of growth at 200 ppm [5]

COc1ccnc(C(=O)N[C@@H](C)C(=O)O[C@@H](C)c2ccc(-c3ccccc3)c(F)c2)c1O [I.e.001, [(1S)-1-(3-fluoro-4-phenyl-phenyl)ethyl] (2S)-2-[(3-hydroxy-4-methoxy-pyridine-2-carbonyl)amino] propanoate]
≥ 80%: inhibition of growth at 200 ppm [1] | pest or weed control at 200 ppm [6] | inhibition of growth at 200 ppm [2] | inhibition of growth at 200 ppm [3] | inhibition of growth at 200 ppm [4] | inhibition of growth at 200 ppm [5]

COc1ccnc(C(=O)N[C@@H](C)C(=O)O[C@@H](C)c2ccc(-c3ccccc3C(C)C)cc2)c1O [I.j.001, [(1S)-1-[4-(2-isopropylphenyl)phenyl]ethyl] (2S)-2-[(3-hydroxy-4-methoxy-pyridine-2-carbonyl)amino] propanoate]
≥ 80%: inhibition of growth at 200 ppm [1] | pest or weed control at 200 ppm [6] | inhibition of growth at 200 ppm [2] | inhibition of growth at 200 ppm [3] | inhibition of growth at 200 ppm [4]

COc1ccnc(C(=O)N[C@@H](C)C(=O)O[C@@H](C)c2ccc(-c3cc(C)ccc3C)cc2)c1O [I.p.001, [(1S)-1-[4-(2,5-dimethylphenyl)phenyl]ethyl] (2S)-2-[(3-hydroxy-4-methoxy-pyridine-2-carbonyl)amino] propanoate]
≥ 80%: inhibition of growth at 200 ppm [1] | pest or weed control at 200 ppm [6] | inhibition of growth at 200 ppm [3] | inhibition of growth at 200 ppm [4] | inhibition of growth at 200 ppm [5]

COc1ccnc(C(=O)N[C@@H](C)C(=O)O[C@@H](C)c2ccc(-c3ccc(Cl)c(C)c3)cc2)c1O [I.y.001, [(1S)-1-[4-(4-chloro-3-methyl-phenyl)phenyl]ethyl] (2S)-2-[(3-hydroxy-4-methoxy-pyridine-2-carbonyl)amino] propanoate]
≥ 80%: inhibition of growth at 200 ppm [1] | pest or weed control at 200 ppm [6] | inhibition of growth at 200 ppm [3] | inhibition of growth at 200 ppm [4]

COc1ccnc(C(=O)N[C@@H](C)C(=O)O[C@@H](C)c2ccc(-c3cccc4ccccc34)cc2)c1O [I.z.001, [(1S)-1-[4-(1-naphthyl)phenyl]ethyl] (2S)-2-[(3-hydroxy-4-methoxy-pyridine-2-carbonyl)amino] propanoate]
≥ 80%: inhibition of growth at 200 ppm [1] | pest or weed control at 200 ppm [6] | inhibition of growth at 200 ppm [3] | inhibition of growth at 200 ppm [4] | inhibition of growth at 200 ppm [5]
